Data taken from patent publication EP0552142B2, “T CELL RECEPTOR PEPTIDES AS THERAPEUTICS FOR AUTOIMMUNE AND MALIGNANT DISEASE” (priority 1989, dated 1991).
Ends that are not written are not given here.

Tested on: EAE
Parameters: species or system New Zealand white rabbits
Settings: rabbit, in vivo
Method: The emulsion was injected SC in multiple sites in the dorsal area of the neck and the tail. Rabbits were immunized either with the free peptide or with peptide conjugated to KLH. […] All rabbits were bled via the ear vein after they were placed in restraining cages and tranquilized with ace-promozine. To prevent hypovolemia, the amount of blood removed was replaced with sterile saline. Sera from individual rats or rabbits were prepared from clotted blood by centrifugation. All sera were decomplemented for 30 minutes at 56°C and frozen in small aliquots to which sodium azide was added.

With DMGHGLRLIHYSYDVNSTEKG [TCR Vβ8(39-59)] the “Clinical Signs of EAE” value was “None”.
